{"source": "patent US20250248965A1", "about": "“HEXAHYDRONAPHTHALEN-2-ONE DERIVATIVES FOR USE AGAINST A CORONAVIRUS INFECTION” (TÁMOGATOTT KUTATÓCSOPORTOK IRODÁJA, priority 2021, published 2025)", "type_in_all_cases": "cell-based", "key": {"[1]": {"assay": "Alamar Blue cell viability (cytotoxicity) assay", "conditions": "African green monkey, Vero E6 host cells", "procedure": "(§1) Compounds to be tested were dissolved in DMSO at 20 mM concentration and stored at −20° C. Stock solutions were diluted with DMEM medium to result 100 μM concentration. The DMSO content was 0.5% in the highest concentration containing wells.\n(§2) In vitro cytotoxicity testing of the compounds was performed by the Alamar Blue cell viability assay. Briefly, Vero E6 cells were plated in a 96-well flat bottom tissue culture plates in 10% FBS containing DMEM media (5000 cells/100 μL) one day prior to experiment. Before the test, 50 μL supernatant was removed and replaced with 50 μL DMEM serum free (SFM) medium. […] Two days after, 20 μL Alamar Blue (resazurin sodium salt, Merck) solution (0.15 mg/mL in PBS, filtered […] Merck) was added to each well and after 3-3.5 hrs of incubation the fluorescence was measured at λEx=530/30 and at λEM=610/10 nm using a Synergy H4 multi-mode microplate reader (BioTek). All measurements were performed in quadruplets and the mean IC50 values together with SEM were represented on the graphs."}, "Vero E6 cells": {"test_system": "Vero E6 cells", "assay": "Alamar Blue cell viability (cytotoxicity) assay", "conditions": "48 hrs", "procedure": "as §1, §2"}, "SARS-CoV-2 [2]": {"test_system": "SARS-CoV-2", "assay": "Viral copy number by RT-qPCR from supernatant", "conditions": "supernatant of infected Vero E6 cells"}, "SARS-CoV-2 [3]": {"test_system": "SARS-CoV-2", "conditions": "SARS-CoV-2 infected Vero E6 cells, 48 hours of incubation"}}}
{"compound": "CCN(CC)CCCC(C)Nc1ccnc2cc(Cl)ccc12", "note": "(stereo not drawn) [Chloroquine]", "values": [{"measurement": "IC50 at 48 h", "setting": "[1]", "result": 34, "unit": "µM"}]}
{"compound": "CC(=O)Oc1ccccc1C(=O)Nc1ncc([N+](=O)[O-])s1", "note": "[Nitazoxanide]", "values": [{"measurement": "toxicity on the host cells", "setting": "Vero E6 cells; range up to 100 μM", "result": "around 35%"}]}
{"compound": "C=C(C)[C@@H]1C[C@@]2(C)C(=CC1=O)CC[C@@H](O)[C@@H]2C", "note": "[Petasol, (3S,4aR,5R,6R)-6-hydroxy-4a,5-dimethyl-3-prop-1-en-2-yl-3,4,5,6,7,8-hexahydronaphthalen-2-one]", "values": [{"measurement": "in vitro cytotoxicity (not cytotoxic up to)", "setting": "Vero E6 cells; Vero E6 host cells", "result": "> 100", "unit": "µM"}, {"measurement": "viral RNA copy numbers (antiviral effect)", "setting": "SARS-CoV-2 [2]", "result": "high similarity with the TCID50 values"}]}
{"compound": "CC(C)=C1C[C@@]2(C)C(=CC1=O)CC[C@@H](O)[C@@H]2C", "note": "[isopetasol, (4aR,5R,6R)-6-hydroxy-4a,5-dimethyl-3-propan-2-ylidene-5,6,7,8-tetrahydro-4H-naphthalen-2-one]", "values": [{"measurement": "antiviral effect (virus-induced CPE, TCID50/mL)", "setting": "SARS-CoV-2 [3]", "result": "markedly different than petasol"}]}
{"compound": "C=C(C)[C@H]1C[C@@]2(C)C(=CC1=O)CC[C@@H](O)[C@@H]2C", "note": "[neopetasol, (3R,4aR,5R,6R)-6-hydroxy-4a,5-dimethyl-3-prop-1-en-2-yl-3,4,5,6,7,8-hexahydronaphthalen-2-one]", "values": [{"measurement": "antiviral effect (virus-induced CPE, TCID50/mL)", "setting": "SARS-CoV-2 [3]", "result": "markedly different than petasol"}]}
